Data: patent US20030138816A1, “Methods and kits for diagnosing the occurrence or the phase of minimal change nephrotic syndrome (MCNS) in a human” (INSTITUT NATIONAL DE LA SANTE ET DE LA RECHERCHE MEDICALE, priority 2001, published 2003)
Residues, ends and D or L forms follow the SMILES beside them. *: point of attachment. Cbz = O=C(OCc1ccccc1)*

Key:
PBMC from relapse = assay: Incubation of PBMCs with the proteasome inhibitor MG132, c-maf protein in protein extracts; type: cell-based, human; conditions: co culture of PBMC from MCNS relapse with MG132, 10 μM, overnight
Protocol: 5) Quantification of IL4 mRNA by quantitative RT-PCR. Quantitative PCR was performed using the Light Cycler (Roche Molecular Biochemical). The samples (2 μl of the RT reaction, corresponding to 20 ng of total RNA) were amplified in a 20 μl reaction mixture containing […] each primer, and 1×mix LightCycler-DNA master SYBR Green buffer (Roche Molecular Biochemical). Carry-over was prevented by using dUTP instead of dTTP, and heat-labile Uracil DNA glyco-sylase (UDG). A standard curve was made using dilution of the RNA prepared from pUc9-IL4 plasmid. The PCR reaction was started by a denaturation at 95° C. for 2 min followed by 40 three step cycles (95° C.: 1 sec, 60° C.: 10 sec, and 72° C.: 24 sec). The relative value for each sample was calculated using the LightCycler analysis software. 6) Electromobility shift assays (EMSA), immunoprecipitations and Western blottings: Cytosolic and nuclear protein preparations as well as EMSA were performed as previously described (34). […] The subunit composition of DNA-protein complexes containing c-Maf was determined by preincubation of nuclear extracts with 1 μg of polyclonal antibodies raised against c-Maf (sc-7866), c-Fos (sc-7202), and c-Jun (sc-1694), (Santa Cruz, Biotechnology), before the addition of the probe. […] Band shifts were quantified using the ImageQuant V1.11 analysis software. […]

[1] = tested on: patient with Minimal Change Nephrotic Syndrome; assay: Prednisone treatment of the patient selected for the subtractive library (onset of nephrotic syndrome, MCNS); type: in vivo, human; conditions: one patient, prednisone 1 mg/kg/day for four weeks, then tapered

SMILES	effect on L/c-maf protein (long form) (PBMC from relapse)	effect on S/c-maf protein (short form) (PBMC from relapse)	remission of nephrotic syndrome [1]
CC(C)C[C@@H](C=O)NC(=O)[C@H](CC(C)C)NC(=O)[C@H](CC(C)C)NC(=O)OCc1ccccc1 [MG132, carbobenzoxyl-leucinyl-leucinyl-leucinal-H] (Cbz-Leu-Leu-Leu-aldehyde)	no evident change	induces a sequestration of S/c-maf protein	–
C[C@]12C=CC(=O)C=C1CC[C@@H]1[C@@H]2C(=O)C[C@@]2(C)[C@H]1CC[C@]2(O)C(=O)CO [prednisone]	–	–	Complete remission was obtained within ten days
